# From PMC3323469, “Comparative study of ^64Cu/NOTA-[D-Tyr^6,βAla^11,Thi^13,Nle^14]BBN(6-14) monomer and dimers for prostate cancer PET imaging” (EJNMMI Research, 2012)
# Square brackets hold non-standard residues; d marks the D form. Peptide text beside a SMILES is read from it. * marks the point of attachment. NOTA = O=C(O)CN1CCN(CC(=O)O)CCN(CC(=O)*)CC1; 2Thi = N[C@@H](Cc1cccs1)C(=O)O; Nle = CCCC[C@H](N)C(=O)O; AEEA = NCCOCCOCC(=O)O; βAla = NCCC(=O)O
# What was measured:
# GRPR [1] = molecular target: T1, GRPR (Homo sapiens, UniProt P30550); assay: Competitive binding in human breast cancer T47D cells; conditions: tested in triplicate
# From the text: Table 1 Analytical data for NOTA-BBN(6-14) monomer and dimmers | column: Peptide
# GRPR [2] = molecular target: T2, GRPR (Mus musculus, UniProt P21729); assay: Biodistribution in Balb/c mice (in vivo GRPR-targeting efficacy); conditions: mouse, pancreas, intravenous, total radioactivity; 64Cu-labeled peptide, female Balb/c mice, 30 min p.i.
# T2 construct: using the pancreas, a GRPR-rich tissue, as a target for specific receptor-mediated accumulation; from tissue; host or cells: Female Balb/c mice, in vivo; organs (pancreas and others) collected 30 min p.i
# Experimental: To determine the in vivo GRPR-targeting efficacy of labeled peptides, biodistribution of female Balb/c mice were realized with a minimum of 4 mice for each condition. Briefly, mice were injected with 370 to 740 kBq (10 to 20 μCi; 100 μL) of either ^64Cu/NOTA-monomer, ^64Cu/NOTA-dimer 1 or ^64Cu/NOTA-dimer 2 via the caudal vein. The animals were sacrificed with CO2 at 30 min post-injection [p.i.]. Organs of interest were then collected, weighed and measured in a gamma counter. The results were expressed as percentage of the injected dose per gram of tissue [%ID/g].
# GRPR [3] = molecular target: T1, GRPR; assay: Competitive binding assay with [125I-Tyr4]bombesin on PC3 cells; parameters: host or cells: PC3 cells (whole, adherent cells in 24-well plates); conditions: read-out: Ki (affinity for GRPR)
# Experimental: Competition assays were performed in 24-well plates using PC3 cells. The cells were cultured until near confluence, and the medium was replaced by 400 μL of reaction medium (RPMI complemented with 2 mg/mL BSA, 4.8 mg/mL HEPES, 1 U/mL penicillin G and 1 μg/mL streptomycin). For the assay, equal volumes of radioactive and non-radioactive ligands were added. […] The plates were incubated for 40 min at 37°C with agitation. After the incubation, the reaction medium was removed, and the cells were washed three times with PBS at room temperature. The cells were harvested and counted in a gamma counter (Cobra II auto-gamma counter, Packard, MN, USA). Experiments were realized three times in triplicate. Data were analyzed with GraphPad Prism 5 Software (GraphPad Software, San Diego, CA, USA) to determine the IC50. Finally, the Ki was determined using Cheng and Pursoff's formula [32].
# T1 sequence (P30550 whole entry): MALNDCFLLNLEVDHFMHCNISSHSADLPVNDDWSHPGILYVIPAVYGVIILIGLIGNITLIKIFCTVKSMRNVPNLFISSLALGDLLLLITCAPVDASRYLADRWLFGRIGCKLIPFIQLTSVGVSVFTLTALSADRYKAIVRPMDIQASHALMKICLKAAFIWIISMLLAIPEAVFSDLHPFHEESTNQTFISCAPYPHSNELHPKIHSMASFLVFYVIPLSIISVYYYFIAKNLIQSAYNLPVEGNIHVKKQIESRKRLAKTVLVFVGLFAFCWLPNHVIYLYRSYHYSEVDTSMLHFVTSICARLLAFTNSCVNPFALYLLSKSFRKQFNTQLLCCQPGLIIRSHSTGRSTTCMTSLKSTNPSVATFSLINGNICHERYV
# T2 sequence (P21729 whole entry): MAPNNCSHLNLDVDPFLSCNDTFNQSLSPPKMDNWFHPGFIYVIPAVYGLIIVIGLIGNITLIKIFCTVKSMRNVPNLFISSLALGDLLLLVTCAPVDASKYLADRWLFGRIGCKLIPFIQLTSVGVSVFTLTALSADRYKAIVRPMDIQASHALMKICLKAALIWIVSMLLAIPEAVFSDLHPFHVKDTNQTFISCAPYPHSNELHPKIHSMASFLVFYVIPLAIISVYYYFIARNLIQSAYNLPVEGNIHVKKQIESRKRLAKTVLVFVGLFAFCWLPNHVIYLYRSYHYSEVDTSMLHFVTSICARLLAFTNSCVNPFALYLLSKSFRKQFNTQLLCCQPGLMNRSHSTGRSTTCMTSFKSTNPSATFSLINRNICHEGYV
smiles,measurement,setting,value
"CCCC[C@H](NC(=O)[C@H](Cc1cccs1)NC(=O)[C@H](Cc1c[nH]cn1)NC(=O)CCNC(=O)[C@@H](NC(=O)[C@H](C)NC(=O)[C@H](Cc1c[nH]c2ccccc12)NC(=O)[C@H](CCC(N)=O)NC(=O)[C@@H](Cc1ccc(O)cc1)NC(=O)COCCOCCNC(=O)CN1CCN(CC(=O)O)CCN(CC(=O)O)CC1)C(C)C)C(N)=O [NOTA-monomer, NOTA-PEG-BBN(6-14)] ({NOTA-AEEA}-[dY]QWAV[βAla]H[2Thi][Nle]-NH2)",Ki,GRPR [1],1.3 nM
same,tissue uptake at 0.5 h,GRPR [2],18.4 ± 2.9 %ID/g
same,Ki,GRPR [3],2.51 ± 1.54 nM
